In patent US20240208992A1, “MACROCYCLES AS CFTR MODULATORS” (Idorsia Pharmaceuticals Ltd, priority 2021, published 2024):

Target: human F508del-CFTR (Homo sapiens, UniProt P13569, DEL508-508)
Assay: F508del-CFTR cell surface expression (corrector activity), DiscoveRx ß-galactosidase complementation chemiluminescence assay in recombinant U2OS cell line;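 note: U2OS cells co-expressing ProLink-tagged F508del-CFTR and a membrane-anchored enzyme acceptor, where more surface CFTR restores β-galactosidase activity measured by chemiluminescence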
Details: U2OS cell line, 16h compound incubation; for EC50: EC50, F508del-CFTR cell surface expression, geomean values; for Emax: U2OS, in relation to the Emax of the corrector lumacaftor (=100%), arithmetic mean values

human F508del-CFTR, sequence (P13569 with tags, fused parts or gaps DEL508-508): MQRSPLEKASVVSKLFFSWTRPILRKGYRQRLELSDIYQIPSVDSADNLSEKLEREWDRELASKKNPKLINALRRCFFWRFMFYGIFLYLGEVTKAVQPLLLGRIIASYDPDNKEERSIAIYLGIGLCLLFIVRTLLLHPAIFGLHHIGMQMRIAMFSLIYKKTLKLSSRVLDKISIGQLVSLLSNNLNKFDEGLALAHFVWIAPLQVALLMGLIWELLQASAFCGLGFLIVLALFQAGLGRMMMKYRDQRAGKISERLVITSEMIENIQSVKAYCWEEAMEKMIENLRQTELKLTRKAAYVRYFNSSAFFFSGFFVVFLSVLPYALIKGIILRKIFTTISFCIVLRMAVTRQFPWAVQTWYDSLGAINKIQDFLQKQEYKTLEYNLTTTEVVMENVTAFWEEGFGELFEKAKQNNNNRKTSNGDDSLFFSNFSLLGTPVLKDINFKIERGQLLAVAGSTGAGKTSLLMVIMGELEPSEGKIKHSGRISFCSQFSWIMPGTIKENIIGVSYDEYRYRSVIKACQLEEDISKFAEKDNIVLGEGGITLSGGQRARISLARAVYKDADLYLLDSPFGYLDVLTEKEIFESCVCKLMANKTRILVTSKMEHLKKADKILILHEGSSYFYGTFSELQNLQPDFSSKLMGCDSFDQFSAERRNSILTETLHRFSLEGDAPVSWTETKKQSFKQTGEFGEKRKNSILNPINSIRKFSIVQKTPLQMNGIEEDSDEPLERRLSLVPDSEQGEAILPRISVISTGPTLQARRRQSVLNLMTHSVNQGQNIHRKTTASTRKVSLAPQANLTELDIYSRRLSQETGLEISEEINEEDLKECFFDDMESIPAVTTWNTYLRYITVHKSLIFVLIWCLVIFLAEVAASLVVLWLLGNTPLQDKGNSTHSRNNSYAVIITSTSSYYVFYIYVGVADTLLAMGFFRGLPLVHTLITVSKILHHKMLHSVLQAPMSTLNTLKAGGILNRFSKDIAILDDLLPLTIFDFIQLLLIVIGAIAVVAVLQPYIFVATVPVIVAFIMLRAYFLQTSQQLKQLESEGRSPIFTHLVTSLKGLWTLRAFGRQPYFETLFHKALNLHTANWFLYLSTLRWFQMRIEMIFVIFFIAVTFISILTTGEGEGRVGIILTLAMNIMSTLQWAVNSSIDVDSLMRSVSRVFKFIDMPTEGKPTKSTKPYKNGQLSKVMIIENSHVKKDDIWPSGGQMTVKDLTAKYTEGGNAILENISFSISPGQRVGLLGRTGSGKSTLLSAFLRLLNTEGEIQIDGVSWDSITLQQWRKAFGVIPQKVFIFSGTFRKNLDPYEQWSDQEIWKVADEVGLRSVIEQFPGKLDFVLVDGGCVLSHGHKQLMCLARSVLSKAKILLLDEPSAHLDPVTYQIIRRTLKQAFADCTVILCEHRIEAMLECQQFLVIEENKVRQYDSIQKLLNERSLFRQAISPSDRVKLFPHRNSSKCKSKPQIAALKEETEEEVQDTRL

| EC50 | Emax | Structure (SMILES) |
| --- | --- | --- |
| 922 nM | 320% | CC(C)C[C@H]1C(=O)N(C)C2(CC2)C(=O)N[C@H](Cc2ccccc2)COc2cnc3ccc(F)cc3c2C(=O)N[C@H](C(=O)NCCc2cnn(C)c2)CC(=O)N1C [Example 143, (3′S,7′S,13′R)-13′-benzyl-20′-fluoro-7′-isobutyl-6′,9′-dimethyl-N-(2-(1-methyl-1H-pyrazol-4-yl)ethyl)-1′,5′,8′,11′-tetraoxo-2′,3′,4′,5′,6′,7′,8′,9′,11′,12′,13′,14′-dodecahydro-1′H-spiro[cyclopropane-1,10′-[1]oxa[4,7,10,14]tetraazacycloheptadecino[17,16-c]quinoline]-3′-carboxamide] |
| 309 nM | 107% | CC(C)C[C@H]1C(=O)N(C)C2(CC2)C(=O)N[C@H](Cc2ccccc2)COc2cnc3ccccc3c2C(=O)N[C@H](C(=O)NCC(F)(F)c2ccccc2)CC(=O)N1C [Example 145, (3′S,7′S,13′R)-13′-benzyl-N-(2,2-difluoro-2-phenylethyl)-7′-isobutyl-6′,9′-dimethyl-1′,5′,8′,11′-tetraoxo-2′,3′,4′,5′,6′,7′,8′,9′,11′,12′,13′,14′-dodecahydro-1′H-spiro[cyclopropane-1,10′-[1]oxa[4,7,10,14]tetraazacycloheptadecino[17,16-c]quinoline]-3′-carboxamide] |
| 247 nM | 318% | Cc1noc(CCNC(=O)[C@@H]2CC(=O)N(C)[C@@H](CC(C)C)C(=O)N(C)C3(CC3)C(=O)N[C@H](Cc3ccccc3)COc3cnc4ccc(F)cc4c3C(=O)N2)n1 [Example 146, (3′S,7′S,13′R)-13′-benzyl-20′-fluoro-7′-isobutyl-6′,9′-dimethyl-N-(2-(3-methyl-1,2,4-oxadiazol-5-yl)ethyl)-1′,5′,8′,11′-tetraoxo-2′,3′,4′,5′,6′,7′,8′,9′,11′,12′,13′,14′-dodecahydro-1′H-spiro[cyclopropane-1,10′-[1]oxa[4,7,10,14]tetraazacycloheptadecino[17,16-c]quinoline]-3′-carboxamide] |
| 270 nM | 339% | Cc1cc(CCNC(=O)[C@@H]2CC(=O)N(C)[C@@H](CC(C)C)C(=O)N(C)C3(CC3)C(=O)N[C@H](Cc3ccccc3)COc3cnc4ccc(F)cc4c3C(=O)N2)on1 [Example 147, (3′S,7′S,13′R)-13′-benzyl-20′-fluoro-7′-isobutyl-6′,9′-dimethyl-N-(2-(3-methylisoxazol-5-yl)ethyl)-1′,5′,8′,11′-tetraoxo-2′,3′,4′,5′,6′,7′,8′,9′,11′,12′,13′,14′-dodecahydro-1′H-spiro[cyclopropane-1,10′-[1]oxa[4,7,10,14]tetraazacycloheptadecino[17,16-c]quinoline]-3′-carboxamide] |
| 811 nM | 198% | COc1cc2c(cc1OC)C(=O)N[C@H](C(=O)NCCc1ccc3c(c1)OCCC3)CC(=O)N(C)[C@@H](CC(C)C)C(=O)N(C)CC(=O)N[C@H](Cc1ccccc1)CO2 [Example 148, (3R,9S,13S)-3-benzyl-N-(2-(chroman-7-yl)ethyl)-9-isobutyl-17,18-dimethoxy-7,10-dimethyl-5,8,11,15-tetraoxo-2,3,4,5,6,7,8,9,10,11,12,13,14,15-tetradecahydrobenzo[p][1]oxa[4,7,10,14]tetraazacycloheptadecine-13-carboxamide] |
| 151 nM | 130% | COc1cccc2c1C(=O)N[C@H](C(=O)NCCc1cccc(OC(F)F)c1)CC(=O)N(C)[C@@H](CC(C)C)C(=O)N(CCC1CCCCC1)CC(=O)N[C@H](Cc1ccccc1)CO2 [Example 150, (3R,9S,13S)-3-benzyl-7-(2-cyclohexylethyl)-N-(3-(difluoromethoxy)phenethyl)-9-isobutyl-16-methoxy-10-methyl-5,8,11,15-tetraoxo-2,3,4,5,6,7,8,9,10,11,12,13,14,15-tetradecahydrobenzo[p][1]oxa[4,7,10,14]tetraazacycloheptadecine-13-carboxamide] |

The next lines start with the molecule.

| Structure (SMILES) | EC50 | Emax |
| --- | --- | --- |
| CC(C)C[C@H]1C(=O)N(C)C2(CC2)C(=O)N[C@H](Cc2ccccc2)COc2cnc3ccc(F)cc3c2C(=O)N[C@H](C(=O)NCCc2ccc(-c3ncccn3)cc2)CC(=O)N1C [Example 137, (3′S,7′S,13′R)-13′-benzyl-20′-fluoro-7′-isobutyl-6′,9′-dimethyl-1′,5′,8′,11′-tetraoxo-N-(4-(pyrimidin-2-yl)phenethyl)-2′,3′,4′,5′,6′,7′,8′,9′,11′,12′,13′,14′-dodecahydro-1′H-spiro[cyclopropane-1,10′-[1]oxa[4,7,10,14]tetraazacycloheptadecino[17,16-c]quinoline]-3′-carboxamide] | 254 nM | 311% |
| CC(C)C[C@H]1C(=O)N(C)C2(CC2)C(=O)N[C@H](Cc2ccccc2)COc2cnc3ccc(F)cc3c2C(=O)N[C@H](C(=O)NCCc2cccc(-c3ncccn3)c2)CC(=O)N1C [Example 138, (3′S,7′S,13′R)-13′-benzyl-20′-fluoro-7′-isobutyl-6′,9′-dimethyl-1′,5′,8′,11′-tetraoxo-N-(3-(pyrimidin-2-yl)phenethyl)-2′,3′,4′,5′,6′,7′,8′,9′,11′,12′,13′,14′-dodecahydro-1′H-spiro[cyclopropane-1,10′-[1]oxa[4,7,10,14]tetraazacycloheptadecino[17,16-c]quinoline]-3′-carboxamide] | 538 nM | 292% |
| CC(C)C[C@H]1C(=O)N(C)C2(CC2)C(=O)N[C@H](Cc2ccccc2)COc2cnc3ccc(F)cc3c2C(=O)N[C@H](C(=O)NCCc2cnn(C3CC3)c2)CC(=O)N1C [Example 139, (3′S,7′S,13′R)-13′-benzyl-N-(2-(1-cyclopropyl-1H-pyrazol-4-yl)ethyl)-20′-fluoro-7′-isobutyl-6′,9′-dimethyl-1′,5′,8′,11′-tetraoxo-2′,3′,4′,5′,6′,7′,8′,9′,11′,12′,13′,14′-dodecahydro-1′H-spiro[cyclopropane-1,10′-[1]oxa[4,7,10,14]tetraazacycloheptadecino[17,16-c]quinoline]-3′-carboxamide] | 463 nM | 381% |
| CC(C)C[C@H]1C(=O)N(C)C2(CC2)C(=O)N[C@H](Cc2ccccc2)COc2cnc3ccc(F)cc3c2C(=O)N[C@H](C(=O)NCCc2nc(C3CC3)no2)CC(=O)N1C [Example 140, (3′S,7′S,13′R)-13′-benzyl-N-(2-(3-cyclopropyl-1,2,4-oxadiazol-5-yl)ethyl)-20′-fluoro-7′-isobutyl-6′,9′-dimethyl-1′,5′,8′,11′-tetraoxo-2′,3′,4′,5′,6′,7′,8′,9′,11′,12′,13′,14′-dodecahydro-1′H-spiro[cyclopropane-1,10′-[1]oxa[4,7,10,14]tetraazacycloheptadecino[17,16-c]quinoline]-3′-carboxamide] | 142 nM | 318% |
| Cc1cc(CCNC(=O)[C@@H]2CC(=O)N(C)[C@@H](CC(C)C)C(=O)N(C)C3(CC3)C(=O)N[C@H](Cc3ccccc3)COc3cnc4ccc(F)cc4c3C(=O)N2)no1 [Example 141, (3′S,7′S,13′R)-13′-benzyl-20′-fluoro-7′-isobutyl-6′,9′-dimethyl-N-(2-(5-methylisoxazol-3-yl)ethyl)-1′,5′,8′,11′-tetraoxo-2′,3′,4′,5′,6′,7′,8′,9′,11′,12′,13′,14′-dodecahydro-1′H-spiro[cyclopropane-1,10′-[1]oxa[4,7,10,14]tetraazacycloheptadecino[17,16-c]quinoline]-3′-carboxamide] | 313 nM | 331% |
| CC(C)C[C@H]1C(=O)N(C)C2(CC2)C(=O)N[C@H](Cc2ccccc2)COc2cnc3ccc(F)cc3c2C(=O)N[C@H](C(=O)NCCc2cc(C3CC3)on2)CC(=O)N1C [Example 142, (3′S,7′S,13′R)-13′-benzyl-N-(2-(5-cyclopropylisoxazol-3-yl)ethyl)-20′-fluoro-7′-isobutyl-6′,9′-dimethyl-1′,5′,8′,11′-tetraoxo-2′,3′,4′,5′,6′,7′,8′,9′,11′,12′,13′,14′-dodecahydro-1′H-spiro[cyclopropane-1,10′-[1]oxa[4,7,10,14]tetraazacycloheptadecino[17,16-c]quinoline]-3′-carboxamide] | 194 nM | 381% |
| CC(C)C[C@H]1C(=O)N(C)C2(CC2)C(=O)N[C@H](Cc2ccccc2)COc2cnc3ccc(F)cc3c2C(=O)N[C@H](C(=O)NCCc2noc(C3CC3)n2)CC(=O)N1C [Example 144, (3′S,7′S,13′R)-13′-benzyl-N-(2-(5-cyclopropyl-1,2,4-oxadiazol-3-yl)ethyl)-20′-fluoro-7′-isobutyl-6′,9′-dimethyl-1′,5′,8′,11′-tetraoxo-2′,3′,4′,5′,6′,7′,8′,9′,11′,12′,13′,14′-dodecahydro-1′H-spiro[cyclopropane-1,10′-[1]oxa[4,7,10,14]tetraazacycloheptadecino[17,16-c]quinoline]-3′-carboxamide] | 211 nM | 327% |
| COc1cccc2c1C(=O)N[C@H](C(=O)NCCc1ccc3c(c1)OCCO3)CC(=O)N(C)[C@@H](CC(C)C)C(=O)N(CCC1CCCCC1)CC(=O)N[C@H](Cc1ccccc1)CO2 [Example 149, (3R,9S,13S)-3-benzyl-7-(2-cyclohexylethyl)-N-(2-(2,3-dihydrobenzo[b][1,4]dioxin-6-yl)ethyl)-9-isobutyl-16-methoxy-10-methyl-5,8,11,15-tetraoxo-2,3,4,5,6,7,8,9,10,11,12,13,14,15-tetradecahydrobenzo[p][1]oxa[4,7,10,14]tetraazacycloheptadecine-13-carboxamide] | 191 nM | 259% |
| COc1ccc(CCNC(=O)[C@@H]2CC(=O)N(C)[C@@H](CC(C)C)C(=O)N(C)CC(=O)N[C@H](Cc3ccccc3)COc3cc4c(cc3C(=O)N2)OCO4)cc1 [Example 153, (7R,13S,17S)-7-benzyl-13-isobutyl-N-(4-methoxyphenethyl)-11,14-dimethyl-9,12,15,19-tetraoxo-6,7,8,9,10,11,12,13,14,15,16,17,18,19-tetradecahydro-[1,3]dioxolo[4′,5′:4,5]benzo[1,2-p][1]oxa[4,7,10,14]tetraazacycloheptadecine-17-carboxamide] | 460 nM | 115% |
